From US20260000783A1, “ANTIBODY-DRUG CONJUGATE WITH IMPROVED THERAPEUTIC WINDOW” (priority 2018, published 2026)

Tests used:
Hela cells = assay: Cell viability assay (MTS) of HeLa cells with SO1861 + dianthin-EGF and PAMAM, PAMAM-conjugates, G4-dendron or chloroquine; type: cell-based, human; details: positive control
Method: Hela cells were seeded in DMEM (PAN-Biotech GmbH) supplemented with 10% fetal bovine serum (PAN-Biotech GmbH) and 1% penicillin/streptomycin (PAN-Biotech GmbH), in a 96 well plate at 5,000 c/w in 100 μL/well and incubated overnight at 37° C. and 5% CO2. The next day 20× concentrated stocks of the PAMAM, PAMAM-conjugates, G4-dendron (prepared in Example 3) or chloroquine (Sigma Aldrich) samples were prepared in DMEM. The media was removed from the cell culture plate and replaced by 160 μL culture media, followed by the addition of 10 μL sample/well (from the 20× concentrated stocks) and a 45 min incubation at 37° C. […] Followed by 15 sec sonication and a brief re-heating at 50° C. for 1 min, while shaking at 1,250 rpm. Subsequently a serial dilution of SO1861 was prepared in PBS.
Scientific Multiskan FC plate reader (Thermo Scientific).

[1] = test system: SK-BR-3, JIMT-1, MDA-MB-468, A431, CaSKi, HeLa, A2058; assay: Control treatments on all cell lines, relative cell viability (Example 8); type: cell-based, human; details: wide range of toxin concentrations, up to 100.000 pM (FIG. 14D)

## CCN(CC)CCCC(C)Nc1ccnc2cc(Cl)ccc12 (centres unmarked) [Chloroquine]
Hela cells
  fold increase in glycoside amount to observe 50% cell killing: 2 fold

## saporin
[1]
  relative cell viability: do not or hardly have any influence on cell viability
